Experiment [1] has as its system persons with atopic skin. Kind of experiment: 2-hour moisture retention duration test on atopic skin (Test Example 9). Format: in vivo, human.
Protocol: A 2-hour moisture retention duration test was performed on atopic skin.
Experiment [2] has as its system normal human skin fibroblasts. Kind of experiment: Collagen production recovery test on damaged fibroblasts (Test Example 1). Format: cell-based. To be noted: 3H-proline uptake into collagen; sample final concentration 3.3%; 24 hours at 37° C.; hypoxanthine/xanthine oxidase damage; FIG. 1. The protocol: A collagen production recovery test was conducted on damaged fibroblasts. Six to eight subcultures of normal human skin fibroblasts (Physicochemical Research Institute, Cell Development Bank NBIRGB) were used in the test. […] Measurement of collagen production ability of a confluent in the steady state was performed according to the method of Webster et al. based on the uptake of ^3H-proline into the produced collagen. […] Since proline is a main component of the amino acids that compose collagen, fibroblasts are cultured in a medium containing ^3H-proline, and the ^3H activity taken up into collagen in the cells is measured. Units are in d.p.m., and represent the number of […] of radioactivity released per minute.

For experiment [3], the system named is volunteers with chapped skin. Kind of experiment: Moisture retention duration test on persons with chapped skin, ammonium samples (Test Example 17). Format: in vivo, human. The protocol:
A moisture retention duration test was conducted on persons with chapped skin.
Test Method: Same as Test Example 2
Measurement Method: Same as Text Example 2
Test Apparatus: Same as Test Example 2

Experiment [4] deals with persons with atopic skin. Kind of experiment: Moisture retention ability test on atopic skin, ammonium samples (Test Example 18). It counts as in vivo, human. To be noted: FIG. 54. The protocol: A moisture retention ability test was performed on atopic skin. Test Method: Same as Test Example 3 Measurement Method: Same as Text Example 3 Test Apparatus: Same as Test Example 3

Molecules are shown by their SMILES.

`N=C(N)NCCC[C@H](N)C(=O)O` [L-arginine]: in the experiment with persons with atopic skin [1], the “moisture retention duration / continuation of moisture retention” value was “observed”. For the same molecule, in experiment [2], the “collagen production ability of fibroblasts damaged by active oxygen” value is reported as “significantly improved”.

As for `N` [ammonium ions], the moisture retention duration result in experiment [3] was “can be observed”. Besides, the moisture retention ability entry in the experiment with persons with atopic skin [4] is “can be observed”.

For the molecule `NCCO` [ethanolamine], the “moisture retention duration / continuation of moisture retention” value in the experiment on persons with atopic skin [1] is “observed”. Moreover, in experiment [2], the “collagen production ability of fibroblasts damaged by active oxygen” value is “significantly improved”.

The values are drawn from US20040180031A1, “Skin conditioner” (Kabushiki Kaisha Soken, priority 1999, published 2004).
